From PMC3848067 (Acta Naturae, 2013)
Like-named read-outs stand apart in the source and are kept apart here.

Experiments:
guinea pigs [1] = details: sensibilizing doses 133 and 266 mg/kg, provoking dose 266 mg/kg on days 14 and 21; cited from earlier work
mice [2] = details: cited from earlier work
MT-4 cells = details: MT-4 cell line; cited from earlier work
[3] = rabbits, single oral dose of 7, 70 and 200 mg/kg; cited from earlier work
[4] = rats, intraperitoneal, 20 mg/kg; parameters of phosphonate 2; cited from earlier work
[5] = dogs, 50 mg (2–5 mg/kg), cited from earlier work
dogs = details: intragastric, 166 mg/kg daily for 4 weeks; cited from earlier work
HIV-1 = details: cited from earlier work
rats [6] = details: cited from earlier work
[7] = rabbits; cited from earlier work
[8] = dogs, cited from earlier work; for AUC / Cmax / Cmax/AUC / MRT / t1/2 / tmax: value for the tested compound (2 or its metabolite AZT)
rats [9] = details: intragastric, 133 and 266 mg/kg daily for 3 months; cited from earlier work
cultured cells = details: cited from earlier work
[10] = canine whole blood at 37°С; cited from earlier work
[11] = pharmacokinetics after single-dose oral administration to dogs; details: comparison from Table 2
Salmonella typhimurium = details: concentrations of up to 1 mg/dish; cited from earlier work
mouse embryonic cells = details: doses 50-fold higher than maximum recommended therapeutic dose for humans; cited from earlier work
[12] = rabbits, oral course, 1 g in 4–5 ml of water, after 6 and 18 h during 5 days; cited from earlier work
mice [13] = details: cited from earlier work; remark: listed apart in the source
pregnant female rats = details: intragastric 133 mg/kg daily on days 1–19 of gestation; cited from earlier work
[14] = cited from earlier work
rats [15] = details: Wistar rats, intragastric 133 mg/kg daily, 10 weeks males and 2 weeks females; cited from earlier work
mice [16] = details: cited from earlier work; remark: listed apart in the source
[17] = extrapolated for single-dose oral administration of 600 mg of phosphonate 2
[18] = rats, oral, 20 mg/kg; cited from earlier work
[19] = single oral dose of phosphonate 2, 200 mg/kg; cited from earlier work
[20] = tested on: bone marrow cells of hybrid mice F1(CBAxC57Bl6); details: doses 50-fold higher than maximum recommended therapeutic dose for humans; cited from earlier work
guinea pigs [21] = details: doses and sensibilization schemes tested; cited from earlier work
[22] = single oral dose of capsules of 2, 10 mg/kg
[23] = single oral dose of capsules of 2, 20 mg/kg
[24] = single oral dose of capsules of 2, 40 mg/kg

## Cc1cn([C@H]2C[C@H](N=[N+]=[N-])[C@@H](COP(=O)(O)C(N)=O)O2)c(=O)[nH]c1=O [Compound 2, AZT 5’-aminocarbonyl phosphonate]
Guinea pigs [1]
  anaphylactic shock: no anaphylactic shock
Mice [2]; intraperitoneal administration to mice
  mean lethal dose (LD50): ≥ 5000 mg/kg
Mice [2]; mice, 2000–50000 mg/kg
  signs after single-dose administration at toxic doses: short-term agitation in animals replaced by distress, inertness and adynamia
MT-4 cells
  toxicity, times lower than that of AZT: 34–50 times
  toxicity, times lower than that of phosphazide: 12.5–15 times
[3]
  presence of AZT in blood: AZT is present in the blood in all the cases
[4]
  AUC0–t: 8020 ng·h/mL
  MRT: 0.82 h
  Vss: 0.37 L
  t1/2: 0.42 h
  СL: 0.45 L/h
[5]
  AZT in blood plasma after intravenous administration: No AZT has been detected
[5]; intravenous, parameters of 2
  AUC t: 2190 ng·h/mL
  CL: 16.8 L/h
  MRT: 0.74 h
  Vss: 12.4 L
  t1/2: 0.35 h
dogs
  tolerability, capsules: well-tolerated by the animals
HIV-1; HIV-infected MT-4 cells
  antiviral activity (inhibition of viral replication) relative to AZT: inferior to that of AZT by about an order of magnitude
HIV-1; MT-4 cell line
  antiviral activity, times lower than that of phosphazide: 3–4.5 times
  selectivity index compared to AZT and phosphazide: higher
Rats [6]; rats, 2000–50000 mg/kg
  signs after single-dose administration at toxic doses: short-term agitation in animals replaced by distress, inertness and adynamia
Rats [6]; single-dose intragastric administration to rats
  LD50: higher than 40 g/kg
[7]
  AZT in peripheral blood after intravenous administration: AZT has not been detected
[8]; administered orally at specified doses
  bioavailability of 5’-aminocarbonyl phosphonate 2: 4.7%
[8]; oral
  bioavailability of AZT after 2 had been administered orally: 8%
[8]; [22]
  AUC: 470 ± 150 ng·h/mL
  Cmax: 310 ± 90 ng/mL
  Cmax/AUC: 0.662 ± 0.066 h⁻¹
  MRT: 2.43 ± 0.04 h
  t1/2: 0.62 ± 0.1 h
  tmax: 1.5 ± 0.25 h
[8]; [23]
  AUC: 980 ± 440 ng·h/mL
  Cmax: 510 ± 180 ng/mL
  Cmax/AUC: 0.561 ± 0.122 h⁻¹
  MRT: 2.65 ± 0.16 h
  t1/2: 0.81 ± 0.2 h
  tmax: 1.6 ± 0.2 h
[8]; [24]
  AUC: 1250 ± 860 ng·h/mL
  Cmax: 510 ± 260 ng/mL
  Cmax/AUC: 0.478 ± 0.117 h⁻¹
  MRT: 2.87 ± 0.49 h
  t1/2: 0.59 ± 0.2 h
  tmax: 1.75 ± 0.27 h
[8]; single oral dose of the named compound equivalent to 20 mg of AZT/kg
  tmax of AZT: 4 h
Rats [9]
  tolerability, chronic administration: well-tolerated by animals
Cultured cells
  efficiency of penetration into cells, times lower than that of AZT: 10–100 times
  efficiency of penetration into cells, times lower than that of phosphazide: approximately 6 times
[10]
  Т1/2 in canine whole blood: > 24 h
[11]
  Cmax of AZT, times lower than for phosphazide: 2.5 times
Salmonella typhimurium
  number of revertants in the Ames test: does not increase the number of revertants
Mouse embryonic cells
  dominant lethal mutations in mouse embryonic cells: nor affected the number of dominant lethal mutations
[12]
  accumulation in blood: gradual accumulation
Mice [13]
  popliteal lymph node reaction: not to affect the popliteal lymph node reaction
Pregnant female rats
  embryotoxic and teratogenic effects: neither embryotoxic nor teratogenic effects
[14]
  half-life in 100% human blood serum: over 6 h
Rats [15]
  effect on animal reproduction function: no effects
Mice [16]; F1(CBAxC57BI6) mice, 332 mg/kg
  primary immune response: reduced the primary immune response to a certain extent
Mice [16]; mice, 166 and 332 mg/kg
  hypersensitivity of the decelerated type reaction: nor the hypersensitivity of the decelerated type reaction
  number of nuclear cells in spleen: affects neither the number of nuclear cells in spleen
[17]
  expected AZT concentration in human blood plasma: 100 to 115 ng/mL
[18]
  original phosphonate 2 in blood plasma: No original phosphonate 2 was detected
[19]
  original substance in daily urine and feces: could not be detected
[20]
  chromosomal aberrations in mouse bone marrow cells: neither caused an increase in the number of chromosomal aberrations
Guinea pigs [21]
  allergic effect in type III hypersensitivity reaction: no allergic effect
